Columns and labels:
[1] = target: T1, cloned human μ opioid receptor (Homo sapiens, UniProt P35372); assay: Receptor binding, [3H]diprenorphine displacement, mu opioid receptor; details: [3H]diprenorphine, cloned human mu opioid receptor; read-out: MOR Ki
T1 construct: expressed in transfected cells

[2] = target: T2, cloned human δ opioid receptor (Homo sapiens, UniProt P41143); assay: Receptor binding, [3H]diprenorphine displacement, delta opioid receptor; details: read-out: DOR Ki
T2 construct: expressed in transfected cells
T2 sequence (P41143 whole entry): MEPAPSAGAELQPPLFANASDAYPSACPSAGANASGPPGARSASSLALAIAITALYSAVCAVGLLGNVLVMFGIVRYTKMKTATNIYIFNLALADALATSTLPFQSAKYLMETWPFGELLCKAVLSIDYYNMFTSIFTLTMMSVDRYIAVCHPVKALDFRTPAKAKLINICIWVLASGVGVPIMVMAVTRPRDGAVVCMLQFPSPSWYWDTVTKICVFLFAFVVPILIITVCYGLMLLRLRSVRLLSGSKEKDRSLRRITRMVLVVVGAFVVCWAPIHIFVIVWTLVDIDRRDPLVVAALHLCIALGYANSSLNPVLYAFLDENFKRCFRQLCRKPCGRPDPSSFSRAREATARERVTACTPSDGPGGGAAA

[3] = target: T3, cloned human κ opioid receptor (Homo sapiens, UniProt P41145); assay: Receptor binding, [3H]diprenorphine displacement, kappa opioid receptor; details: [3H]diprenorphine, cloned human kappa opioid receptor; read-out: KOR Ki
T3 construct: expressed in transfected cells
T3 sequence (P41145 whole entry): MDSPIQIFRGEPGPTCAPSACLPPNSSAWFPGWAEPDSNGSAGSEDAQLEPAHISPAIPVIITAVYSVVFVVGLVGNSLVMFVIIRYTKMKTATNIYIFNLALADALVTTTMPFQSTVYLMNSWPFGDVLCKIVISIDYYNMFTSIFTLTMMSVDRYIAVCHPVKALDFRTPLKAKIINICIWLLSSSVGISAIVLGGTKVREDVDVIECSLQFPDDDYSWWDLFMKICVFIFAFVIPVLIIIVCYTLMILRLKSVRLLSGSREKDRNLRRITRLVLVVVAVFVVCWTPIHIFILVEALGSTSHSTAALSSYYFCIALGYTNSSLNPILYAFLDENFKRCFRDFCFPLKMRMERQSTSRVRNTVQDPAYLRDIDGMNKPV

[4] = target: T1, cloned human μ opioid receptor; assay: Inhibition of agonist (loperamide)-stimulated [35S]GTPγS binding; type: biochemical; details: in vitro studies
Protocol: The potencies of the antagonists were assessed by their abilities to inhibit agonist-stimulated [^35S]GTPγS binding to membranes containing the cloned human μ, κ, or δ opioid receptors. The agonist used for the μ opioid receptor was loperamide.
To determine the IC50 value, which was the concentration to give half-maximal inhibition of agonist-stimulated [^35S]GTPγS binding, the amount of [^35S]GTPγS bound in the presence of a fixed concentration of agonist and various concentrations of antagonist was measured. The fixed concentration of agonist was the EC80 for the agonist, which was the concentration to give 80% of the relative maximum stimulation of [^35S]GTPγS binding. The IC50 value was determined from a best nonlinear regression fit of the data to the following equation,
where Y is the amount of [^35S]GTPγS bound at each concentration of antagonist, Bottom is the calculated amount of [^35S]GTPγS bound in the presence of an infinite concentration of antagonist, Top is the calculated amount of [^35S]GTPγS bound in the absence of added antagonist, X is the logarithm of the concentration of antagonist, and LogIC50 is the logarithm of the concentration of antagonist where the amount of [^35S]GTPγS bound is halfway between Bottom and Top. The nonlinear regression fit was performed using GraphPad Prism® version 3.00 for Windows (GraphPad Software, San Diego, Calif.).

T1 sequence (P35372 whole entry): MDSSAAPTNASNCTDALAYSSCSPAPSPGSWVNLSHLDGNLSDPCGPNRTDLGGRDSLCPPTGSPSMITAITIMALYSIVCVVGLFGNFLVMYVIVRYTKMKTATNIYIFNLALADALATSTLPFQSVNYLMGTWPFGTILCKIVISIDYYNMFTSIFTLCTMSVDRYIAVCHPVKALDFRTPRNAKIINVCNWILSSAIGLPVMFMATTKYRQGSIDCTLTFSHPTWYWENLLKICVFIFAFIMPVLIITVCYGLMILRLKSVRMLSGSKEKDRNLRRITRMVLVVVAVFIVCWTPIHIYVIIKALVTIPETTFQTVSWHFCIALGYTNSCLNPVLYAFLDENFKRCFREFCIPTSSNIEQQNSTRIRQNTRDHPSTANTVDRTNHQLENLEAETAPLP

`C[C@H]1CN(C[C@H](Cc2ccccc2)C(=O)O)CC[C@@]1(C)c1cccc(C(=O)O)c1` [Example C-1, 3-[1-(2S-Carboxy-3-phenyl-propyl)-3R,4R-dimethyl-piperidin-4-yl]-benzoic acid, reference compound] was tested, and the Ki [1] was 2.29 µM, the Ki [2] was > 10 µM and the Ki [3] was > 10 µM. The “inhibition of agonist-stimulated [35S]GTPγS binding relative to the other test compounds” value [4] was “significantly reduced inhibition”.

Source: patent US20100311782A1, “SUBSTITUTED PIPERIDINYLPROPANOIC ACID COMPOUNDS AND METHODS OF THEIR USE” (priority 2009, published 2010)
